Consider 13 molecules from patent publication US10005818B2, “Derivative peptide compounds and methods of use” (REALTA HOLDINGS, LLC, priority 2010, dated 2018).

A short description of one series: Solubility in water. It counts as physicochemical.
Series [1] concerns complement activation in factor B-depleted human sera. It is filed as biochemical. The note with it: for inhibition of complement activity in hemolytic assay: factor B depleted serum. On the procedure:
Peptides were diluted to 0.77 mM in factor B-depleted human sera (Complement Technologies, Inc.) and incubated for 1 hour at 37° C. These peptides were then diluted with GVBS^++ to equal 2.5/s serum, of which 0.25 ml was combined with 0.4 ml of GVBS^++ and 0.1 ml of sensitized sheep red blood cells (RBCs) and again incubated for 1 hour at 37° C. The procedure was stopped by the addition of 4.0 ml of GVBS^−−, centrifuged for 5 minutes at 1,620×g, and the absorbance of the supernatants was read at 412 nm in a spectrophotometer. The percent lysis of each sample was standardized to that of the serum only control.
The final concentration of peptide in factor B-depleted serum was 0.77 mM. Each peptide was evaluated in triplicate and the mean values are reported. […] In the hemolytic assay, soluble peptides are standardized to water and insoluble peptides standardized to DMSO.
Polar Assortant peptides were serially diluted in undiluted factor B-depleted human sera (Complement Technologies, Inc.) and incubated for 1 hour at 37° C. Water, GVBS^++ and DMSO were included as controls. These peptides were then diluted with GVBS^++ to equal 2.5/s serum, of which 0.25 ml was combined with 0.4 ml of GVBS^++ and 0.1 ml of sensitized sheep red blood cells (RBCs) and again incubated for 1 hour at 37° C. The procedure was stopped by the addition of 4.0 ml of GVBS^−−, centrifuged for 5 minutes at 1,620×g, and the absorbance of the supernatants was read at 412 nm in a spectrophotometer. The percent lysis of each sample was standardized to that of the serum only control.
The final concentration of peptide in factor B-depleted serum was 0.77 mM. […] In the hemolytic assay, soluble peptides were standardized to water and insoluble peptides standardized to DMSO.
The final concentration of peptide in factor B-depleted serum was 0.77 mM. […] In the hemolytic assay, soluble peptides are standardized to water and insoluble peptides standardized to DMSO.

[2] abbreviates: Table 7, PEGylated and sarcosine/alanine substitution peptides.
Setting [3] is: Table 5, sarcosine substitution peptides.

Square brackets hold non-standard residues; d marks the D form. Ends that are not written are not given here. Peptide text beside a SMILES is read from it. Sar = CNCC(=O)O

On to `CC[C@H](C)[C@H](N)C(=O)N[C@@H](C)C(=O)N[C@@H](CC(C)C)C(=O)N[C@H](C(=O)N[C@@H](CC(C)C)C(=O)N[C@@H](CCC(=O)O)C(=O)N1CCC[C@H]1C(=O)N[C@H](C(=O)N[C@@H](CS)C(=O)N[C@@H](CS)C(=O)N(C)CC(=O)N[C@@H](CCC(=O)O)C(=O)N[C@@H](CCCNC(=N)N)C(=O)N[C@@H](C)C(=O)N[C@@H](C)C(=O)NCCOCCOCCOCCOCCOCCOCCOCCOCCOCCOCCOCCOCCOCCOCCOCCOCCOCCOCCOCCOCCOCCOCCOCCOCCC(=O)O)[C@@H](C)CC)[C@@H](C)CC` [PA-Q11Sar-dPEG24], for which the Solubility in water result in “Solubility in water” (setting [2]) is listed as “Yes”. Moreover, in series [1], the “Hemolysis (%)” value is 12.04%.
In the case of `CC[C@H](C)[C@H](N)C(=O)N[C@@H](C)C(=O)N[C@@H](CC(C)C)C(=O)N[C@H](C(=O)N[C@@H](CC(C)C)C(=O)N(C)CC(=O)N1CCC[C@H]1C(=O)N[C@H](C(=O)N[C@@H](CS)C(=O)N[C@@H](CS)C(=O)N[C@@H](CCC(N)=O)C(=O)N[C@@H](CCC(=O)O)C(=O)N[C@@H](CCCNC(=N)N)C(=O)N[C@@H](C)C(=O)N[C@@H](C)C(=O)O)[C@@H](C)CC)[C@@H](C)CC` [PA-E6Sar], the Solubility in water entry in “Solubility in water” (setting [3]) is reported as “No”. For the same molecule, in series [1], the “Hemolysis (%)” value stood at 5.19%.
With “dPEG24-IALILEPICCQERAA-dPEG24 (cysteine pairing not given here) [dPEG24-PA-dPEG24]”, the “solubility in water / aqueous solutions” value in the series “Solubility in water” is “soluble in water”. In series [1], the “inhibition of complement activity in hemolytic assay” value is “varying degrees of complement inhibition”.
As to `CC[C@H](C)[C@H](N)C(=O)N[C@@H](C)C(=O)N[C@@H](CC(C)C)C(=O)N[C@H](C(=O)N[C@@H](CC(C)C)C(=O)N[C@@H](CCC(=O)O)C(=O)N(C)CC(=O)N[C@H](C(=O)N[C@@H](CS)C(=O)N[C@@H](CS)C(=O)N[C@@H](CCC(N)=O)C(=O)N[C@@H](CCC(=O)O)C(=O)N[C@@H](CCCNC(=N)N)C(=O)N(C)CC(=O)N[C@@H](C)C(=O)O)[C@@H](C)CC)[C@@H](C)CC` [Peptide A14SarP7Sar, IALILE(Sar)ICCQER(Sar)A] (H-IALILE[Sar]ICCQER[Sar]A-OH; N-terminus and C-terminus assumed), the Solubility in water result in “Solubility in water” (setting [2]) is listed as “Yes”. In addition, the “Hemolysis (%)” value in series [1] turned out to be 4.37%.
On to `CC[C@H](C)[C@H](N)C(=O)N[C@@H](C)C(=O)N[C@@H](CC(C)C)C(=O)N[C@H](C(=O)N[C@@H](CC(C)C)C(=O)N[C@@H](CCC(=O)O)C(=O)N1CCC[C@H]1C(=O)N[C@H](C(=O)N(C)CC(=O)N[C@@H](CS)C(=O)N[C@@H](CCC(N)=O)C(=O)N[C@@H](CCC(=O)O)C(=O)N(C)CC(=O)N[C@@H](C)C(=O)N[C@@H](C)C(=O)O)[C@@H](C)CC)[C@@H](C)CC` [Peptide R13SarC9Sar] (H-IALILEPI[Sar]CQE[Sar]AA-OH), for which the Solubility in water result in “Solubility in water” (setting [2]) is “No”. The “Hemolysis (%)” value in series [1] is listed as 84.81%.
For `CC[C@H](C)[C@H](N)C(=O)N[C@@H](C)C(=O)N[C@@H](CC(C)C)C(=O)N[C@H](C(=O)N[C@@H](CC(C)C)C(=O)N[C@@H](CCC(=O)O)C(=O)N1CCC[C@H]1C(=O)N[C@H](C(=O)N[C@@H](CS)C(=O)N[C@@H](CS)C(=O)N[C@@H](CCC(N)=O)C(=O)N[C@@H](CCC(=O)O)C(=O)N[C@@H](CCCNC(=N)N)C(=O)N[C@@H](C)C(=O)N(C)CC(=O)O)[C@@H](C)CC)[C@@H](C)CC` [PA-A15Sar], the Solubility in water entry in the series “Solubility in water” (setting [3]) is “No”. Further, the “Hemolysis (%)” value in series [1] was 21.68%.
As for “dPEG24-IALILEPICCQERAA (cysteine pairing not given here) [dPEG24-PA]”, the “solubility in water / aqueous solutions” value in “Solubility in water” is “soluble in water”. Also, in series [1], the “inhibition of complement activity in hemolytic assay” value is on record as “varying degrees of complement inhibition”.
Turning to `CC[C@H](C)[C@H](N)C(=O)N(C)CC(=O)N[C@@H](CC(C)C)C(=O)N[C@H](C(=O)N[C@@H](CC(C)C)C(=O)N[C@@H](CCC(=O)O)C(=O)N1CCC[C@H]1C(=O)N[C@H](C(=O)N[C@@H](CS)C(=O)N[C@@H](CS)C(=O)N[C@@H](CCC(N)=O)C(=O)N[C@@H](CCC(=O)O)C(=O)N[C@@H](CCCNC(=N)N)C(=O)N[C@@H](C)C(=O)N[C@@H](C)C(=O)O)[C@@H](C)CC)[C@@H](C)CC` [PA-A2Sar] (H-I[Sar]LILEPICCQERAA-OH; N-terminus and C-terminus assumed), the Solubility in water entry in the series “Solubility in water” (setting [3]) is reported as “Yes”. Also, the “Hemolysis (%)” value in series [1] was 37.72%.
`CC[C@H](C)[C@H](N)C(=O)N[C@@H](C)C(=O)N[C@@H](CC(C)C)C(=O)N[C@H](C(=O)N[C@@H](CC(C)C)C(=O)N[C@@H](CCC(=O)O)C(=O)N1CCC[C@H]1C(=O)N[C@H](C(=O)N(C)CC(=O)N[C@@H](CCC(N)=O)C(=O)N[C@@H](CCC(=O)O)C(=O)N[C@@H](CCCNC(=N)N)C(=O)N[C@@H](C)C(=O)N[C@@H](C)C(=O)O)[C@@H](C)CC)[C@@H](C)CC` [PA-C9SarD10] (H-IALILEPI[Sar]QERAA-OH): the Solubility in water result in “Solubility in water” (setting [2]) is on record as “Yes”. In addition, the “Hemolysis (%)” value in series [1] was found to be 100.52%.
For the molecule `CC[C@H](C)[C@H](N)C(=O)N[C@@H](C)C(=O)N(C)CC(=O)N[C@H](C(=O)N[C@@H](CC(C)C)C(=O)N[C@@H](CCC(=O)O)C(=O)N1CCC[C@H]1C(=O)N[C@H](C(=O)N[C@@H](CS)C(=O)N[C@@H](CS)C(=O)N[C@@H](CCC(N)=O)C(=O)N[C@@H](CCC(=O)O)C(=O)N[C@@H](CCCNC(=N)N)C(=O)N[C@@H](C)C(=O)N[C@@H](C)C(=O)O)[C@@H](C)CC)[C@@H](C)CC` [PA-L3Sar] (H-IA[Sar]ILEPICCQERAA-OH; N-terminus and C-terminus assumed), in “Solubility in water” (setting [3]), the Solubility in water entry is recorded as “Yes”. Moreover, in series [1], the “Hemolysis (%)” value came out at 87.36%.
For the molecule `CC[C@H](C)[C@H](N)C(=O)N[C@@H](C)C(=O)N[C@@H](CC(C)C)C(=O)N[C@H](C(=O)N[C@@H](CC(C)C)C(=O)N[C@@H](C)C(=O)N1CCC[C@H]1C(=O)N[C@H](C(=O)N(C)CC(=O)N[C@@H](CS)C(=O)N[C@@H](CCC(N)=O)C(=O)N[C@@H](C)C(=O)N[C@@H](CCCNC(=N)N)C(=O)N[C@@H](C)C(=O)N[C@@H](C)C(=O)O)[C@@H](C)CC)[C@@H](C)CC` [Peptide E6AE12AC9Sar] (H-IALILAPI[Sar]CQARAA-OH), the Solubility in water entry in the series “Solubility in water” (setting [2]) is “No”. Further, the “Hemolysis (%)” value in series [1] is reported as 2.99%.
In the same order, the values of `CC[C@H](C)[C@H](N)C(=O)N[C@@H](C)C(=O)N[C@@H](CC(C)C)C(=O)N[C@H](C(=O)N[C@@H](CC(C)C)C(=O)N[C@@H](CCC(=O)O)C(=O)N1CCC[C@H]1C(=O)N[C@H](C(=O)N(C)CC(=O)N[C@@H](CS)C(=O)N[C@@H](CCC(N)=O)C(=O)N[C@@H](CCC(=O)O)C(=O)N[C@@H](CCCNC(=N)N)C(=O)N(C)CC(=O)N[C@@H](C)C(=O)O)[C@@H](C)CC)[C@@H](C)CC` [Peptide A14SarC9Sar] (H-IALILEPI[Sar]CQER[Sar]A-OH) are “No” and 14.73%.
With `CC[C@H](C)[C@H](N)C(=O)N[C@@H](C)C(=O)N[C@@H](CC(C)C)C(=O)N[C@H](C(=O)N[C@@H](CC(C)C)C(=O)N[C@@H](CCC(=O)O)C(=O)N1CCC[C@H]1C(=O)N[C@H](C(=O)N[C@@H](CS)C(=O)N(C)CC(=O)N[C@@H](CCC(N)=O)C(=O)N[C@@H](CCC(=O)O)C(=O)N[C@@H](CCCNC(=N)N)C(=O)N[C@@H](C)C(=O)N[C@@H](C)C(=O)O)[C@@H](C)CC)[C@@H](C)CC` [PA-C10Sar], the Solubility in water result in “Solubility in water” (setting [3]) is given as “No”. For the same molecule, in series [1], the “Hemolysis (%)” value is 56.18%.
